Active and inactive are the calls of the source.
What was measured:
[1] = target: T1, Trace amine-associated receptor 1 (Homo sapiens, UniProt Q96RJ0); assay: Counterscreen for agonists of the human trace amine associated receptor 1 (hTAAR1): Fluorescence-based cell-based high throughput dose response assay to identify hTAAR1 agonist that also desensitize TAAR1 receptor response.; type: functional
T1 sequence (Q96RJ0 whole entry): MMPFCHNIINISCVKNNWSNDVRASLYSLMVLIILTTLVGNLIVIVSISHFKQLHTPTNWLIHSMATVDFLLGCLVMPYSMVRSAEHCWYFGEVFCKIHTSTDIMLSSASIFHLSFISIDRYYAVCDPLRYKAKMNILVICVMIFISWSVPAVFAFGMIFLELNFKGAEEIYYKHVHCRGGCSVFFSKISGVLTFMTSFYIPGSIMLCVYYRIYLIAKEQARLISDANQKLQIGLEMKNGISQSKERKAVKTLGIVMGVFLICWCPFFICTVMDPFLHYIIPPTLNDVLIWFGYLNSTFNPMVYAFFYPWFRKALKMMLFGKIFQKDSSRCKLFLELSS

Nonstructural protein 1 = Nonstructural protein 1 (Influenza A virus, UniProt Q194T2); type: functional, Influenza A virus (A/California/07/2009(H1N1))
[2] = Vero E6 cell cytotoxicity, dose response, cytotoxicity control for non-replicating M. tuberculosis project, secondary assay (AID 492998); type: functional, VeroE6; settings: Vero C1008
cells [3] = type: functional, cell-based
[4] = target: T2, Ubiquitin-conjugating enzyme E2 N (Homo sapiens, UniProt P61088); type: functional;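 also: Dose-response confirmation in a TR-FRET assay detecting UBC13-driven polyubiquitin chain formation, inhibition measured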
T2 sequence (P61088 whole entry): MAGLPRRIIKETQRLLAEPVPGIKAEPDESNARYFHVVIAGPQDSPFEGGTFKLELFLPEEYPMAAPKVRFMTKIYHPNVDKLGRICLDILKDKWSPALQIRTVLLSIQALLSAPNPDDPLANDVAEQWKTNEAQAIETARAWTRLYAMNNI

[5] = THP-1 cell cytotoxicity, dose response, cytotoxicity control for non-replicating M. tuberculosis project (AID 489025); type: functional
cells [6] = type: functional, cell-based; remark: listed apart in the source
[7] = target: T1, Trace amine-associated receptor 1; assay: Fluorescence-based cell-based high throughput dose response assay to identify agonists of the human trace amine associated receptor 1 (TAAR1).; type: functional
cells [8] = type: functional
[9] = target: T3, DNA repair protein RAD52 homolog (Homo sapiens, UniProt P43351); type: functional, biochemical
T3 sequence (P43351 whole entry): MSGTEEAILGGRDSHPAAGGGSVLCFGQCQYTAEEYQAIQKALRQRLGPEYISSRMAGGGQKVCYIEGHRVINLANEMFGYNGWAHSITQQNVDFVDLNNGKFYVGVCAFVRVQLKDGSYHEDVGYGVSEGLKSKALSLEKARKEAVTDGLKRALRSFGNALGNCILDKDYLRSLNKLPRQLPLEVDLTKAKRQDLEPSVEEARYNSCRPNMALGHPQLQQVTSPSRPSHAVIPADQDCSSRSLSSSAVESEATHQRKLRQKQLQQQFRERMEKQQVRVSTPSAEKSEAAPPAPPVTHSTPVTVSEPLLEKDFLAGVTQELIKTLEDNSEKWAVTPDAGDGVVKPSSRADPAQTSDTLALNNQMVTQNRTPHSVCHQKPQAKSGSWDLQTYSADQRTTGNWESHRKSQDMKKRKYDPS

[10] = target: DNA damage-inducible transcript 3 protein (Mus musculus, UniProt P35639); type: functional, Cricetulus griseus
Sequence of DNA damage-inducible transcript 3 protein (P35639 whole entry): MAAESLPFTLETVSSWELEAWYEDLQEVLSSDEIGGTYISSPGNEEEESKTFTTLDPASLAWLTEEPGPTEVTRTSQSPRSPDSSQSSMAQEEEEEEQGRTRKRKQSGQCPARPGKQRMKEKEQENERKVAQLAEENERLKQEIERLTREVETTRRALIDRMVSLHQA

Sequence of Nonstructural protein 1 (Q194T2 whole entry): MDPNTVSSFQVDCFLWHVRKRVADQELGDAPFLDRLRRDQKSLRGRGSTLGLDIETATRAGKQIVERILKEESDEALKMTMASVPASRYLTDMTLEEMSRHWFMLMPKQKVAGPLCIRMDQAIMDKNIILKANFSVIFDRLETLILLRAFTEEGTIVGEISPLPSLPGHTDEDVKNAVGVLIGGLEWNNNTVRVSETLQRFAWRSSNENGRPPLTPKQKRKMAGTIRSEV

N=C(N)N/N=C/c1cn(-c2ccccc2)nc1-c1cccs1.O=[N+]([O-])O
inactive: IC50 [1] 17.7 µM | EC50 (cells [3]) 11.4 µM | IC50 [4] > 20 µM | IC50 (cells [6]) 12.2 µM
active: IC50 (Nonstructural protein 1) > 100 µM | CC50 [2] 11 µM | CC50 [5] 12.3 µM | EC50 [7] 6.9 µM | IC50 (cells [8]) 11 µM | AC50 [9] 3.85 µM
10 µM: Absolute IC50 (CHOP) [10]

Reference: ChEMBL document CHEMBL1201862, “PubChem BioAssay data set” (2004)
